The record followed here is patent US10174035B2, “6-morpholinyl-2-pyrazolyl-9H-purine derivatives and their use as PI3K inhibitors” (Daiichi Sankyo Company, Limited, priority 2015, dated 2019).

As usually defined, the IC50 is the concentration that gives 50% inhibition.

This assay addresses recombinant PI3K δ enzyme (Homo sapiens (Human), UniProt O00329). Nature of the assay: In vitro enzyme assay (Kinase-Glo luminescent kinase assay), PI3Kδ. It is filed as biochemical. Here is the method: The Kinase-Glo luminescent kinase assay kit (from Promega) was used to measure kinase activity. In this assay, amount of ATP remaining in solution following a kinase reaction is measured. The effect of compounds on PI3Kδ inhibition was carried out by adding 2.29 μg/ml of recombinant PI3K δ enzyme (Proteros, Germany) to reaction mixture containing assay buffer (50 mM HEPES, pH 7.4, 50 mM NaCl, 0.05% CHAPS) supplemented with 10 mM MgCl2, 5 mM DTT, 60 μM Phosphatidyl inositol bisphosphate (PIP2) and 10 μM ATP in the absence or presence of different concentrations of the compounds in a final volume of 15 μl/well, in a 384 well plate. The reaction mixture was incubated for 2 hours at room temperature. At the end of incubation period the equal volume of Kinase-Glo plus (Promega, V3772), was added per well and the luminescence was measured after incubating for 10 minutes at room temperature in dark. Results were calculated by measuring the luminescence units of test samples to blanks containing no enzyme.
The compounds of the present invention were tested for their selectivity for PI3Kδ over PI3Kα, PI3Kβ and PI3Kγ following the above assay using specific recombinant enzymes (Proteros, Germany) for each kinase. Assay condition of kinase assay (PI3Kα, PI3Kβ, PI3Kγ and PI3Kδ) was as follows. Enzyme: 2.29 μg/mL; ATP: 10 μM; PIP2 substrate: 60 μM and Reaction Time: 2 hours.
(In Kinase-Glo more light means more ATP remaining.)

Sequence of recombinant PI3K δ enzyme (O00329 whole entry, species assumed): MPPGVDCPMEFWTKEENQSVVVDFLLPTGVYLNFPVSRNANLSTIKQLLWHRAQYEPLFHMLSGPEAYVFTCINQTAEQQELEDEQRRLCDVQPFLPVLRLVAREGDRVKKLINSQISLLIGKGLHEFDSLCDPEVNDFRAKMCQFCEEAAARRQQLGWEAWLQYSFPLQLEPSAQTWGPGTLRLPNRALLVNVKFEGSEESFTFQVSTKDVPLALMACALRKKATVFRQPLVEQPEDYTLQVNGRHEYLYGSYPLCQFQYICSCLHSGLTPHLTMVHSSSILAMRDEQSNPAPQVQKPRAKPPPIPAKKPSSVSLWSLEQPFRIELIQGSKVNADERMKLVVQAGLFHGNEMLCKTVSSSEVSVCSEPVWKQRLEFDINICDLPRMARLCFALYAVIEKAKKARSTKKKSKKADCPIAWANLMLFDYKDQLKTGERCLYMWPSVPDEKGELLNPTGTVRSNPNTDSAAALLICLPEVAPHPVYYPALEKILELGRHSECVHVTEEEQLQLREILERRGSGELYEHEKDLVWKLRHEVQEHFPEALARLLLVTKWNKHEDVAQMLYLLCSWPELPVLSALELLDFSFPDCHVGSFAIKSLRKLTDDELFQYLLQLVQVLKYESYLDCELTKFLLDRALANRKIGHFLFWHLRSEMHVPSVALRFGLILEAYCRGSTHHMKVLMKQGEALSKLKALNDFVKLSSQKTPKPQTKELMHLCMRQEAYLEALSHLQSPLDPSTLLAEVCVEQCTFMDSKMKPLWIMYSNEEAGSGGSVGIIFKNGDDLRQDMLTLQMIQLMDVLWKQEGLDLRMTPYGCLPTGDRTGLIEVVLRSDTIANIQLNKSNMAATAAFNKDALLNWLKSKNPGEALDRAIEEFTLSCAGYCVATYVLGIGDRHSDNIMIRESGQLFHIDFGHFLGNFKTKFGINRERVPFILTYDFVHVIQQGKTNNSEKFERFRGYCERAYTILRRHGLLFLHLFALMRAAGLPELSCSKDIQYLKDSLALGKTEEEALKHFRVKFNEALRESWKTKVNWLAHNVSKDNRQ
Sequence of recombinant PI3K δ enzyme (P27986 whole entry partner, species assumed): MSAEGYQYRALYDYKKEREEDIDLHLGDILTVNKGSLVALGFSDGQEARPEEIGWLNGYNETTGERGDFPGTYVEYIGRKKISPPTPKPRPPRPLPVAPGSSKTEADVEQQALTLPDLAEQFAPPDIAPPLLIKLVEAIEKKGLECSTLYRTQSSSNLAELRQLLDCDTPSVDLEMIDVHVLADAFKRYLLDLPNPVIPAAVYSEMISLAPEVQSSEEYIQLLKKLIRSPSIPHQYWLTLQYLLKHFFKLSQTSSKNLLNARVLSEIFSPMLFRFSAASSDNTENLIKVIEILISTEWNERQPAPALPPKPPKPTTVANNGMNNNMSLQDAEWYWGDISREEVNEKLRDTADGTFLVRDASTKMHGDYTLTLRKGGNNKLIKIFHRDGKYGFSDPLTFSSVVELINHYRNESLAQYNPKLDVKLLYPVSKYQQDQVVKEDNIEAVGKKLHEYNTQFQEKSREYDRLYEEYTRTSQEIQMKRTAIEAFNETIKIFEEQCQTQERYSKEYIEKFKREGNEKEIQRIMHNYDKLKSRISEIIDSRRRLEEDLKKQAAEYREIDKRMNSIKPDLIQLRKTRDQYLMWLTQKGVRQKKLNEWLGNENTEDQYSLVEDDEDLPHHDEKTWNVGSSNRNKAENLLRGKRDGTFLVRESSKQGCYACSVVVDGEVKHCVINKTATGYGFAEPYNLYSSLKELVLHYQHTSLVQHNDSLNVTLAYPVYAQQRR

`CN1CCN(CCNC(=O)c2nc3c(N4CCOCC4)nc(-c4cnn(C)c4)nc3[nH]2)CC1` [compound 70, N-[2-(4-methylpiperazin-1-yl)ethyl]-2-(1-methyl-1H-pyrazol-4-yl)-6-(morpholin-4-yl)-9H-purine-8-carboxamide]: the concentration for half-maximal inhibition (IC50) is 54 nM.

As to `Cn1cc(-c2nc(N3CCOCC3)c3nc(C(=O)NCC(C)(C)CO)[nH]c3n2)cn1` [compound 76, N-(3-hydroxy-2,2-dimethylpropyl)-2-(1-methyl-1H-pyrazol-4-yl)-6-(morpholin-4-yl)-9H-purine-8-carboxamide], the concentration for half-maximal inhibition (IC50) came out at 101 nM.

On to `C[C@@H]1CN(C2CCN(C(=O)c3nc4c(N5CCOCC5)cc(-c5cnn(C)c5)nc4n3C)CC2)C[C@H](C)O1` [compound 110, {4-[cis-2,6-Dimethylmorpholin-4-yl]piperidin-1-yl}[3-methyl-5-(1-methyl-1H-pyrazol-4-yl)-7-(morpholin-4-yl)-3H-imidazo[4,5-b]pyridin-2-yl]methanone], for which the IC50 came out at 63 nM.

With `Cn1cc(-c2nc(N3CCOCC3)c3nc(C(=O)N4CCC(N5CCOCC5)CC4)[nH]c3n2)c(C(F)(F)F)n1` [compound 17, {2-[1-Methyl-3-(trifluoromethyl)-1H-pyrazol-4-yl]-6-(morpholin-4-yl)-9H-purin-8-yl}[4-(morpholin-4-yl)piperidin-1-yl]methanone], the half-maximal inhibitory concentration (IC50) is 12 nM.

With `Cn1cc(-c2nc(N3CCOCC3)c3nc(C(=O)NCCCN4CCOCC4)[nH]c3n2)cn1` [compound 63, 2-(1-Methyl-1H-pyrazol-4-yl)-6-(morpholin-4-yl)-N-[3-(morpholin-4-yl)propyl]-9H-purine-8-carboxamide], the half-inhibitory concentration (IC50) stood at 21 nM.

Take `C[C@@H]1CN(C2CCN(C(=O)c3nc4c(N5CCOCC5)cc(-c5cnn(C)c5)nc4[nH]3)CC2)C[C@H](C)O1` [compound 109, {4-[cis-2,6-Dimethylmorpholin-4-yl]piperidin-1-yl}[5-(1-methyl-1H-pyrazol-4-yl)-7-(morpholin-4-yl)-3H-imidazo[4,5-b]pyridin-2-yl]methanone]: the 50% inhibitory concentration (IC50) came to 19 nM.

As for `Cn1cc(-c2nc3[nH]c(C(=O)NCCN4CCOCC4)nc3c(N3CCOCC3)c2F)cn1` [compound 105, 6-Fluoro-5-(1-methyl-1H-pyrazol-4-yl)-7-(morpholin-4-yl)-N-[2-(morpholin-4-yl)ethyl]-3H-imidazo[4,5-b]pyridine-2-carboxamide], the IC50 is 32 nM.

As to `CN1CCC(NC(=O)c2nc3c(N4CCOCC4)nc(-c4cnn(C)c4)nc3[nH]2)CC1` [compound 47, N-(1-Methylpiperidin-4-yl)-2-(1-methyl-1H-pyrazol-4-yl)-6-(morpholin-4-yl)-9H-purine-8-carboxamide], the 50% inhibitory concentration (IC50) worked out at 139 nM.

As for `CC(=O)NC1CCN(C(=O)c2nc3c(N4CCOCC4)nc(-c4cnn(C)c4)nc3[nH]2)CC1` [compound 26, N-(1-{[2-(1-methyl-1H-pyrazol-4-yl)-6-(morpholin-4-yl)-9H-purin-8-yl]carbonyl}piperidin-4-yl)acetamide], the half-maximal inhibitory concentration (IC50) worked out at 101 nM.

In the case of `COCCNC(=O)c1nc2c(N3CCOCC3)nc(-c3cnn(C)c3)nc2[nH]1` [compound 52, N-(2-Methoxyethyl)-2-(1-methyl-1H-pyrazol-4-yl)-6-(morpholin-4-yl)-9H-purine-8-carboxamide], the half-inhibitory concentration (IC50) amounted to 231 nM.

On to `Cn1cc(-c2nc(N3CCOCC3)c3nc(C(=O)N4CCNC(=O)C4)[nH]c3n2)cn1` [compound 31, 4-{[2-(1-Methyl-1H-pyrazol-4-yl)-6-(morpholin-4-yl)-9H-purin-8-yl]carbonyl}piperazin-2-one], for which the IC50 amounted to 465 nM.

With `Cn1cc(-c2cc(N3CCOCC3)c3nc(C(=O)N4CCN(C5CCOCC5)CC4)[nH]c3n2)cn1` [compound 135, [5-(1-Methyl-1H-pyrazol-4-yl)-7-(morpholin-4-yl)-3H-imidazo[4,5-b]pyridin-2-yl][4-(tetrahydro-2H-pyran-4-yl)piperazin-1-yl]methanone], the concentration for half-maximal inhibition (IC50) was 19 nM.

For `O=C(c1nc2c(N3CCOCC3)cc(-c3cn[nH]c3)nc2[nH]1)N1CCC(N2CCOCC2)CC1` [compound 133, [4-(Morpholin-4-yl)piperidin-1-yl][7-(morpholin-4-yl)-5-(1H-pyrazol-4-yl)-3H-imidazo[4,5-b]pyridin-2-yl]methanone], the half-maximal inhibitory concentration (IC50) was 19 nM.

`Cn1cc(-c2nc(N3CCOCC3)c3nc(C(=O)N4CCN(C(=O)OC(C)(C)C)CC4)[nH]c3n2)cn1` [compound 43, Tert-butyl 4-{[2-(1-methyl-1H-pyrazol-4-yl)-6-(morpholin-4-yl)-9H-purin-8-yl]carbonyl}piperazine-1-carboxylate]: the concentration for half-maximal inhibition (IC50) is 57 nM.

`Cc1nn(C)cc1-c1nc2c(nc(C(=O)N3CCC(N4CCOCC4)CC3)n2CC2CC2)c(N2CCOCC2)c1F` [compound 83, [3-(Cyclopropylmethyl)-5-(1,3-dimethyl-1H-pyrazol-4-yl)-6-fluoro-7-(morpholin-4-yl)-3H-imidazo[4,5-b]pyridin-2-yl][4-(morpholin-4-yl)piperidin-1-yl]methanone]: the IC50 is 92 nM.

With `Cn1cc(-c2cc(N3CCOCC3)c3nc(C(=O)N4CCC(C(C)(C)O)CC4)[nH]c3n2)cn1` [compound 117, [4-(2-Hydroxypropan-2-yl)piperidin-1-yl][5-(1-methyl-1H-pyrazol-4-yl)-7-(morpholin-4-yl)-3H-imidazo[4,5-b]pyridin-2-yl]methanone], the IC50 was determined as 122 nM.

For the molecule `O=C(c1nc2c(N3CCOCC3)c(F)c(-c3c[nH]nc3C(F)(F)F)nc2[nH]1)N1CCC(N2CCOCC2)CC1` [compound 123, {6-Fluoro-7-(morpholin-4-yl)-5-[3-(trifluoromethyl)-1H-pyrazol-4-yl]-3H-imidazo[4,5-b]pyridin-2-yl}[4-(morpholin-4-yl)piperidin-1-yl]methanone], the IC50 was found to be 4 nM.

On to `Cn1cc(-c2nc(N3CCOCC3)c3nc(C(=O)N4CCCCC4)[nH]c3n2)cn1` [compound 53, [2-(1-Methyl-1H-pyrazol-4-yl)-6-(morpholin-4-yl)-9H-purin-8-yl](piperidin-1-yl)methanone], for which the IC50 was found to be 88 nM.

Turning to `CCN(CCCN1CCOCC1)C(=O)c1nc2c(N3CCOCC3)nc(-c3cnn(C)c3)nc2[nH]1` [compound 69, N-ethyl-2-(1-methyl-1H-pyrazol-4-yl)-6-(morpholin-4-yl)-N-[3-(morpholin-4-yl)propyl]-9H-purine-8-carboxamide], the IC50 came to 61 nM.

Turning to `Cc1nn(C)cc1-c1cc(N2CCOCC2)c2nc(C(=O)N3CCC(N4C[C@@H](C)O[C@@H](C)C4)CC3)n(C)c2n1` [compound 114, {4-[cis-2,6-Dimethylmorpholin-4-yl]piperidin-1-yl}[5-(1,3-dimethyl-1H-pyrazol-4-yl)-3-methyl-7-(morpholin-4-yl)-3H-imidazo[4,5-b]pyridin-2-yl]methanone], the IC50 is 72 nM.

With `Cn1cc(-c2nc(N3CCOCC3)c3nc(C(=O)N4CCN(C(=O)c5ncccn5)CC4)[nH]c3n2)cn1` [compound 25, [2-(1-Methyl-1H-pyrazol-4-yl)-6-(morpholin-4-yl)-9H-purin-8-yl][4-(pyrimidin-2-ylcarbonyl)piperazin-1-yl]methanone], the IC50 is 99 nM.

As to `Cc1nn(C)cc1-c1nc2[nH]c(C(=O)N3CCC(N4CCOCC4)CC3)nc2c(N2CCOCC2)c1C` [compound 89, [5-(1,3-Dimethyl-1H-pyrazol-4-yl)-6-methyl-7-(morpholin-4-yl)-3H-imidazo[4,5-b]pyridin-2-yl][4-(morpholin-4-yl)piperidin-1-yl]methanone], the IC50 came out at 46 nM.

Consider `Cc1nn(C)cc1-c1nc(N2CCOCC2)c2nc(C(=O)N3CCN(C4CCOCC4)CC3)[nH]c2n1` [compound 9, [2-(1,3-Dimethyl-1H-pyrazol-4-yl)-6-(morpholin-4-yl)-9H-purin-8-yl][4-(tetrahydro-2H-pyran-4-yl)piperazin-1-yl]methanone], for which the IC50 amounted to 9 nM.

For the molecule `CCN(CCN1CCOCC1)C(=O)c1nc2c(N3CCOCC3)nc(-c3cnn(C)c3)nc2[nH]1` [compound 59, N-ethyl-2-(1-methyl-1H-pyrazol-4-yl)-6-(morpholin-4-yl)-N-[2-(morpholin-4-yl)ethyl]-9H-purine-8-carboxamide], the half-inhibitory concentration (IC50) is 206 nM.

Consider `CN1CCN(C2CN(C(=O)c3nc4c(N5CCOCC5)nc(-c5cnn(C)c5)nc4[nH]3)C2)CC1=O` [Compound No. 130, 1-Methyl-4-(1-{[2-(1-methyl-1H-pyrazol-4-yl)-6-(morpholin-4-yl)-9H-purin-8-yl]carbonyl}azetidin-3-yl)piperazin-2-one], for which the IC50 came to 10 nM.

As to `CCOC(=O)CN1CCN(C(=O)c2nc3c(N4CCOCC4)nc(-c4cnn(C)c4)nc3[nH]2)CC1` [compound 45, Ethyl (4-{[2-(1-methyl-1H-pyrazol-4-yl)-6-(morpholin-4-yl)-9H-purin-8-yl]carbonyl}piperazin-1-yl)acetate], the IC50 stood at 48 nM.

Turning to `Cc1nn(C)c(C)c1-c1nc2[nH]c(C(=O)N3CCC(N4CCOCC4)CC3)nc2c(N2CCOCC2)c1F` [Compound No. 93], the concentration for half-maximal inhibition (IC50) turned out to be 26 nM.

For `Cn1cc(-c2nc3c(nc(C(=O)N4CCC(N5CCOCC5)CC4)n3C)c(N3CCOCC3)c2F)cn1` [compound 111, [6-Fluoro-3-methyl-5-(1-methyl-1-pyrazol-4-yl)-7-(morpholin-4-yl)-3H-imidazo[4,5-b]pyridin-2-yl][4-(morpholin-4-yl)piperidin-1-yl]methanone], the 50% inhibitory concentration (IC50) came to 184 nM.
